# Reference: article PMC10959927, “Platinum iodido drugs show potential anti-tumor activity, affecting cancer cell metabolism and inducing ROS and senescence in gastrointestinal cancer cells” (Communications Biology, 2024)
# Several values for one entry are separate records, joined by “and”; a condition that tells them apart may be missing. Equal entries are not always repeated.
# Columns and labels:
# Type in all cases: cell-based, human
# [1] = test system: MKN45 cells; experiment: Seahorse XF OCR, ECAR and energy map; parameters: Basal resp. / Maximal resp. / SRC: unit not given here
# Procedure: Oxygen Consumption Rate (OCR), Extra Cellular Acidification Rate (ECAR) and Energy map measurements. Cells were plated in XF HS Miniplates (Seahorse Bioscience) at a cellular density of 1 × 10^4 cells/well and incubated overnight. […] After an OCR baseline measurement, the minimum oxygen consumption was determined by adding 1.5 µM oligomycin (O) and the maximal respiration rate was assessed by adding 1 µM carbonyl cyanide p-trifluoro methoxyphenylhydrazone (FCCP, F). At the end of the experiment, the non-mitochondrial oxygen consumption was evaluated by adding both 0.5 µM rotenone (R) and antimycin (A). Experiments were run in a XF HS Mini analyzer (Seahorse Agilent), and raw data were normalized to total protein using a BCA protein assay kit (Cat. no. 23225, Thermo Scientific).
# [2] = test system: AGS cells; experiment: ATP determination assay (bioluminescence); conditions: replicates
# Procedure: (§1) ATP determination assay. […] The analysis was performed using the ATP Bioluminescense Assay Kit CLS II (Cat. no. 11699695001, Roche) according to the manufacturer’s instructions. […] Data were normalized to total protein using the BCA protein assay kit (Thermo Scientific).
# [3] = test system: MKN45 cells; experiment: ATP determination assay (bioluminescence); conditions: replicates
# Procedure: as §1
# [4] = test system: PANC1 cells; experiment: ATP determination assay (bioluminescence); conditions: replicates
# Procedure: as §1
# [5] = test system: AGS cells; experiment: Lactate production assay; conditions: replicates
# Procedure: (§2) Lactate production assay. […] Proteins were removed from 50 μL of the medium by adding 100 μL of 8% Percloric Acid and 40% EtOH at 4 °C, and centrifuging at 2 × 10^4 g for 10 min at 4 °C. The supernatants were then frozen until the lactate in 15 μL of each sample, or lactate standard, was measured mixed with 150 μl of assay buffer (0.5 M glycine [pH 9.5], 0.2 M Hydrazine, 3.4 mM EDTA), 100 μl of H20, 5 μL of 1100 U/mL LDH (Roche) and 30 μL of 15 mM NAD + . NADH production was evaluated by measuring absorbance at 340 nm in a multiplate reader (Synergy HT, Biotek) and it was proportional to the lactic acid concentration in the sample after a 2 h incubation. The lactate concentration was normalized to the total amount of protein measured with the Micro BCA Protein Assay Kit (Thermo Scientific). Assays were performed in triplicate in three independent experiments.
# [6] = test system: MKN45 cells; experiment: Lactate production assay; conditions: replicates
# Procedure: as §2
# [7] = test system: PANC1 cells; experiment: Lactate production assay; conditions: replicates
# Procedure: as §2
# [8] = test system: PANC1 cells; experiment: ROS detection by confocal microscopy (DHE, MitoSox); conditions: PANC1, 1 h treatment; H2O2 200 µM, CDDP 10 µM, I5 20 µM, I6 20 µM
# Procedure: Tumor cells were seeded at a density of 3 × 10^5 cells in 15 µm 8-well IBIDI plates and incubated overnight. […] Subsequently, cells were stained with 10 μM of dihydroethidium (DHE, cytosolic O2^·- probe, Sigma-Aldrich) or with 5 μM of Mitosox (mitochondrial O2^·- probe, Sigma-Aldrich) for 15–30 min[79] and then visualized on a confocal microscope (Confocal LSM 710 Zeiss, Biomedical Research Institute Alberto Sols, IIBm-CSIC-UAM, Madrid, Spain). The image analysis was realized using the software program Image J.
smiles,measurement,setting,value
"CC(C)[NH][Pt@SP1]([I])([I])[NH]C(C)C [I6, cis-[PtI2(isopropylamine)2]]","ECAR, Mean (energy map)",[1]; MKN45 (with I5),17.85 mpH/min/absorbance
same,"OCR, Mean (energy map)",[1]; MKN45 (with I5),73.36 pmol/min/absorbance
same,ECAR (energy map),[1]; MKN45 (with I6),73.12 mpH/min/absorbance
same,"ECAR, Mean (energy map)",[1]; MKN45 (with I6),230.729 mpH/min/absorbance
same,OCR (energy map),[1]; MKN45 (with I6),230.7 pmol/min/absorbance
same,"OCR, Mean (energy map)",[1]; MKN45 (with I6),73.1182 pmol/min/absorbance
same,ATP-product. coupled resp.,"[1]; MKN45, IC50 24 h",104.06 and 161.5 and 167.13
same,Basal resp.,"[1]; MKN45, IC50 24 h",127.94 and 199.95 and 209.1
same,Maximal resp.,"[1]; MKN45, IC50 24 h",239.39 and 365.62 and 377.71
same,SRC,"[1]; MKN45, IC50 24 h",111.45 and 165.66 and 168.61
same,effect on ECAR,"[1]; MKN45, IC50 24 h",no apparent effect
same,OCR,"[1]; MKN45, IC50 24 h, time 1.53 min (I5) / 1.53 min (I6)",147.857 pmoles/min/µg protein and 218.375 pmoles/min/µg protein and 227.071 pmoles/min/µg protein
same,OCR,"[1]; MKN45, IC50 24 h, time 8.04 min (I5) / 8.03 min (I6)",138.707 pmoles/min/µg protein and 201.479 pmoles/min/µg protein and 205.427 pmoles/min/µg protein
same,OCR,"[1]; MKN45, IC50 24 h, time 14.51 min (I5) / 14.5 min (I6)",135.932 pmoles/min/µg protein and 195.066 pmoles/min/µg protein and 199.064 pmoles/min/µg protein
same,OCR,"[1]; MKN45, IC50 24 h, time 21.06 min (I5) / 21.09 min (I6)",69.6082 pmoles/min/µg protein and 82.0209 pmoles/min/µg protein and 78.1047 pmoles/min/µg protein
same,OCR,"[1]; MKN45, IC50 24 h, time 27.57 min (I5) / 27.59 min (I6)",57.4221 pmoles/min/µg protein and 74.9291 pmoles/min/µg protein and 73.3602 pmoles/min/µg protein
same,OCR,"[1]; MKN45, IC50 24 h, time 34.08 min (I5) / 34.07 min (I6)",57.8854 pmoles/min/µg protein and 73.9423 pmoles/min/µg protein and 73.7207 pmoles/min/µg protein
same,OCR,"[1]; MKN45, IC50 24 h, time 40.66 min (I5) / 40.62 min (I6)",219.523 pmoles/min/µg protein and 319.315 pmoles/min/µg protein and 325.525 pmoles/min/µg protein
same,OCR,"[1]; MKN45, IC50 24 h, time 53.68 min (I5) / 53.58 min (I6)",193.975 pmoles/min/µg protein and 265.77 pmoles/min/µg protein and 274.483 pmoles/min/µg protein
same,OCR,"[1]; MKN45, IC50 24 h, time 60.27 min (I5) / 60.14 min (I6)",39.9791 pmoles/min/µg protein and 45.1028 pmoles/min/µg protein and 42.2414 pmoles/min/µg protein
same,OCR,"[1]; MKN45, IC50 24 h, time 66.75 min (I5) / 66.62 min (I6)",39.1246 pmoles/min/µg protein and 45.4375 pmoles/min/µg protein and 44.5027 pmoles/min/µg protein
same,OCR,"[1]; MKN45, IC50 24 h, time 73.23 min (I5) / 73.1 min (I6)",38.1003 pmoles/min/µg protein and 46.0211 pmoles/min/µg protein and 46.1344 pmoles/min/µg protein
same,ATP assay,[2],0.001 nmoles ATP/mg prot and 0.003 nmoles ATP/mg prot and 0.01 nmoles ATP/mg prot and 0 nmoles ATP/mg prot and 0.005 nmoles ATP/mg prot and 0.002 nmoles ATP/mg prot
same,ATP assay,[3],5246 nmoles ATP/mg prot and 3320.9 nmoles ATP/mg prot and 18883.3 nmoles ATP/mg prot and 23272 nmoles ATP/mg prot and 3325.73 nmoles ATP/mg prot and 3863.84 nmoles ATP/mg prot and 4434 nmoles ATP/mg prot and 3684.47 nmoles ATP/mg prot and 4201.47 nmoles ATP/mg prot
same,ATP assay,[4],7880 nmoles ATP/mg prot and 13332.3 nmoles ATP/mg prot and 3956 nmoles ATP/mg prot and 3277.42 nmoles ATP/mg prot and 6180.37 nmoles ATP/mg prot and 5189.49 nmoles ATP/mg prot and 6520 nmoles ATP/mg prot and 7744.41 nmoles ATP/mg prot and 6743.81 nmoles ATP/mg prot
same,lactate assay,[5],3.22 Lactate mM/mg prot and 1.52 Lactate mM/mg prot and 3.74 Lactate mM/mg prot and 3.2668 Lactate mM/mg prot and 2.67 Lactate mM/mg prot and 5.511 Lactate mM/mg prot and 0.01 Lactate mM/mg prot and 0.02 Lactate mM/mg prot and 0.03 Lactate mM/mg prot
same,lactate assay,[6],3.98 Lactate mM/mg prot and 8.05 Lactate mM/mg prot and 7.53 Lactate mM/mg prot and 3.819 Lactate mM/mg prot and 1.91 Lactate mM/mg prot and 4.092 Lactate mM/mg prot and 2.56 Lactate mM/mg prot and 2.5 Lactate mM/mg prot and 2.54 Lactate mM/mg prot
same,lactate assay,[7],11.33 Lactate mM/mg prot and 12.9 Lactate mM/mg prot and 10.14 Lactate mM/mg prot and 5.296 Lactate mM/mg prot and 5.829 Lactate mM/mg prot and 4.94 Lactate mM/mg prot and 4.32 Lactate mM/mg prot and 4.21 Lactate mM/mg prot and 4.26 Lactate mM/mg prot
same,"DHE fluorescence intensity (per cell), cytosolic O2•−",[8],98.4842 and 86.3637 and 85.797 and 82.1548 and 76.0203 and 75.3191
same,"Mitosox fluorescence intensity (per cell), mitochondrial O2•−",[8],91.9093 and 80.7891 and 70.3911 and 69.2294 and 66.6051 and 57.9644
